According to patent US9255073B2, “1-benzyl-3-hydroxymethylindazole derivatives and use thereof in the treatment of diseases based on the expression of MCP-1, CX3CR1 and p40” (AZIENDE CHIM. RIUN. ANG. FRANC. A.C.R.A.F. S.p.A., priority 2008, dated 2016):
Counter-ions that a name gives are not always drawn.

Columns and labels:
[1] = system: MCP-1; test: Production of MCP-1 protein by LPS-stimulated MonoMac6 cells (ELISA); format: cell-based; conditions: Homo sapiens, MONO-MAC-6, MonoMac6, 1 h preincubation, LPS 100 ng/ml 20 h, ELISA of supernatant; for inhibition at 75 µM: 75 μM (maximum soluble concentration); for inhibition at 30 µM: 30 μM (maximum soluble concentration); for inhibition at 150 µM: 150 μM (maximum soluble concentration)
Description: (§1) The capacity of the compounds to inhibit the expression of the protein MCP-1 by lipopolysaccharide (LPS)-stimulated MonoMac6 cells was evaluated. The cells were placed in 96-well plates at a concentration of 50 000 cells/well. The compounds were tested at the maximum soluble concentration given in Table 2 (in the range 30-300 μM) and incubated for 1 hour. The cells were then stimulated with LPS (100 ng/ml) for 20 hours.
The amount of MCP-1 produced was measured in the supernatants, suitably diluted with buffer, by means of an immunoenzymatic test (ELISA) using a commercial kit (ELISA MCP-1/JE, R&D Systems).

[2] = system: CX3CR1; test: Gene expression of CX3CR1 in LPS-stimulated MonoMac6 cells (real-time RT-PCR); format: cell-based, human; conditions: MonoMac6, 1 h preincubation, LPS 100 ng/ml 20 h
Description: as §1, with “of CX3CR1” for “of the protein MCP-1”, “Table 3” for “Table 2”
(§2) The total RNA was extracted from the cell pellet using the RNeasy mini kit (Qiagen), reverse-transcribed with the TaqMan Reverse transcription reagents synthesis kit (Applied Biosystems) and the cDNA obtained was used for the real-time PCR reaction. The amplification was obtained in 96-well plates using the ABI Prism 7000 sequence detection system (Applied Biosystems), by applying the following temperature profile: 50° C. for 2 minutes, 95° C. for 10 minutes and 45 cycles at 95° C. for 15 seconds and 60° C. for 1 minute. For the amplification, a set of primers and probe specific for human CX3CR1 was used (Applied Biosystems, RefSeq NM_001337.3). A set of primers and probe for β-actin was used in separate wells as an internal control of the samples for the purposes of normalization. Once the reaction had taken place, the fluorescence data were analysed using the ABI Prism 7000 SDS software, by calculating the threshold cycle (Ct) for each sample and subsequently performing a relative quantification via the ΔΔCt method.

[3] = system: MCP-1; test: Gene expression of MCP-1 in LPS-stimulated MonoMac6 cells (real-time RT-PCR); format: cell-based, human; conditions: MonoMac6, 1 h preincubation, LPS 100 ng/ml 4 h
Description: as §1, with “of” for “of the protein”, “1” for “2”, “4” for “20”
as §2, with “MCP-1” for “CX3CR1”, “NM_002982.3).” for “NM_001337.3).”

[4] = system: p40; test: Gene expression of p40 in LPS-stimulated MonoMac6 cells (real-time RT-PCR); format: cell-based, human; conditions: MonoMac6, 1 h preincubation, LPS 100 ng/ml 4 h
Description: as §1, with “p40” for “the protein MCP-1”, “4” for “2”, “4” for “20”
as §2, with “p40” for “CX3CR1”, “NM_002187.2).” for “NM_001337.3).”

[5] = 300 μM (maximum soluble concentration)
[6] = 150 μM (maximum soluble concentration)
[7] = 30 μM (maximum soluble concentration)

OCc1nn(Cc2ccc(Cl)cc2)c2ccccc12 [Compound 4, [1-(4-chlorobenzyl)-1H-indazol-3-yl]methanol]
inhibition at 75 µM [1]: 85%

CC(C)(O)c1nn(Cc2ccc(Cl)cc2Cl)c2ccccc12 [Compound 11, 2-[1-(2,4-dichlorobenzyl)-1H-indazol-3-yl]propan-2-ol]
inhibition at 30 µM [1]: 88%

Cc1cc(Cl)ccc1Cn1nc(C(C)O)c2ccccc21 (centres unmarked) [Compound 12, 1-[1-(4-chloro-2-methylbenzyl)-1H-indazol-3-yl]ethanol]
inhibition at 30 µM [1]: 76%

OCCOCc1nn(Cc2ccccc2)c2ccccc12 [Compound 13, 2-[(1-benzyl-1H-indazol-3-yl)methoxy]ethanol]
% inhibition of CX3CR1 expression (mRNA) [2, 5]: 90% | % inhibition of MCP-1 expression (mRNA) [3, 5]: 55% | inhibition at 300 µM [1, 5]: 78% | melting point: 67 to 69 °C

COc1ccc2c(c1)c(CO)nn2Cc1ccccc1 [Compound 9, (1-benzyl-5-methoxy-1H-indazol-3-yl)methanol]
melting point: 97 to 98 °C

CC(C)(CN1CCOCC1)OCc1nn(Cc2ccccc2)c2ccccc12.O=C(O)/C=C\C(=O)O [Compound 18, 1-benzyl-3-[(1,1-dimethyl-2-morpholin-4-ylethoxy)methyl]-1H-indazole maleate]
inhibition at 75 µM [1]: 85% | melting point: 87 to 88 °C | % inhibition of p40 expression (mRNA) ([4]; 75 μM (maximum soluble concentration)): 39%

CN(C)CCCOCc1nn(Cc2ccccc2)c2ccccc12 [Compound 15, 3-[(1-benzyl-1H-indazol-3-yl)methoxy]-N,N-dimethylpropan-1-amine hydrochloride]
inhibition at 75 µM [1]: 44%

CC(C)(CO)OCc1nn(Cc2ccccc2)c2ccccc12 [Compound 17, 2-[(1-benzyl-1H-indazol-3-yl)methoxy]-2-methylpropan-1-ol]
% inhibition of CX3CR1 expression (mRNA) [2, 6]: 88% | % inhibition of MCP-1 expression (mRNA) [3, 6]: 53% | inhibition at 150 µM [1]: 82% | melting point: 52 to 53 °C | % inhibition of p40 expression (mRNA) [4, 6]: 37%

Cc1cc(Cl)ccc1Cn1nc(CO)c2ccccc21 [Compound 8, [1-(4-chloro-2-methylbenzyl)-1H-indazol-3-yl]methanol]
inhibition at 30 µM [1]: 75%

CN(C)CCOCc1nn(Cc2ccccc2)c2ccccc12.Cl [Compound 14, 2-[(1-benzyl-1H-indazol-3-yl)methoxy]-N,N-dimethylethanamine hydrochloride]
% inhibition of CX3CR1 expression (mRNA) [2, 6]: 96% | % inhibition of MCP-1 expression (mRNA) [3, 6]: 52% | inhibition at 150 µM [1]: 64%

COc1ccc(Cn2nc(CO)c3ccccc32)cc1 [Compound 2, [1-(4-methoxybenzyl)-1H-indazol-3-yl]methanol]
melting point: 95 to 97 °C

Cc1cc(Cl)ccc1Cn1nc(C(C)(C)O)c2ccccc21 [Compound 10, 2-[1-(4-chloro-2-methylbenzyl)-1H-indazol-3-yl]propan-2-ol]
% inhibition of CX3CR1 expression (mRNA) [2, 7]: 89% | % inhibition of MCP-1 expression (mRNA) [3, 7]: 72% | inhibition at 30 µM [1]: 81% | melting point: 72 to 74 °C | % inhibition of p40 expression (mRNA) [4, 7]: 65%

OCc1nn(Cc2ccc(Cl)cc2Cl)c2ccccc12 [Compound 6, [1-(2,4-dichlorobenzyl)-1H-indazol-3-yl]methanol]
inhibition at 30 µM [1]: 54%

OCc1nn(Cc2ccccc2)c2ccccc12 [Compound 1, 1-benzyl-3-hydroxymethyl-indazole]
% inhibition of CX3CR1 expression (mRNA) [2, 6]: 72% | % inhibition of MCP-1 expression (mRNA) [3, 6]: 30% | inhibition at 150 µM [1]: 54% | % inhibition of p40 expression (mRNA) [4, 6]: 32%
